Laboratory results taken from patent US8173689B2 (Novartis AG, priority 2006, dated 2012).
Where two headings read alike, the source gives them in different places.

Assays:
[1] = biological target: T1, cytoplasmic domain of the human CSF-1R (Homo sapiens, UniProt P07333); assay: In vitro kinase assay for colony stimulating factor-1 receptor (AlphaScreen); format: biochemical; conditions: tested at about 1 μM; for inhibition at 1 µM: read-out: CSF-1R percent inhibition
T1 construct: Recombinant protein corresponding to the cytoplasmic domain of the human CSF-1R; purchased Invitrogen Corporation, Carlsbad, Calif; PV3249
T1 sequence (P07333 539-972 limits assumed): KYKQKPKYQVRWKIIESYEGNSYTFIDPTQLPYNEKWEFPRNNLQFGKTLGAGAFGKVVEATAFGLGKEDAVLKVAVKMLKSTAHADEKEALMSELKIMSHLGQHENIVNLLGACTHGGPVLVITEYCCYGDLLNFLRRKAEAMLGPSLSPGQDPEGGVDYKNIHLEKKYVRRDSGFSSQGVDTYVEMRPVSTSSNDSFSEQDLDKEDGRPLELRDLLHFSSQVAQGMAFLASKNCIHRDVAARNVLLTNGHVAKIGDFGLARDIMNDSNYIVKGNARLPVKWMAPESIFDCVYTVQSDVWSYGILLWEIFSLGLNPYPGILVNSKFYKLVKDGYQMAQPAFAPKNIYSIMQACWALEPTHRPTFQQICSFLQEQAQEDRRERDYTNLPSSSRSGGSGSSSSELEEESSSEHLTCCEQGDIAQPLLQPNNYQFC
Summary of the method: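 4 nM enzyme, 1 μM ATP; buffer 50 mM Hepes pH 7.5, 5 mM MgCl2, 10 mM MnCl2, 1.0 mM DTT, 0.1% BSA, 0.01% Tween 80. Readout: AlphaScreen, PT66 acceptor/streptavidin donor, overnight.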

kinase domain of cKIT = biological target: T2, kinase domain of cKIT (Homo sapiens, UniProt P10721); assay: Inhibition of cKIT kinase signaling in an in vitro biochemical assay (alphascreen); conditions: tested at about 1 μM; for inhibition at 1 µM: read-out: cKit percent inhibition
T2 construct: The kinase domain of cKIT was assayed in 50 mM Hepes; purchased Upstate 14-559
T2 sequence (P10721 589-937 limits assumed): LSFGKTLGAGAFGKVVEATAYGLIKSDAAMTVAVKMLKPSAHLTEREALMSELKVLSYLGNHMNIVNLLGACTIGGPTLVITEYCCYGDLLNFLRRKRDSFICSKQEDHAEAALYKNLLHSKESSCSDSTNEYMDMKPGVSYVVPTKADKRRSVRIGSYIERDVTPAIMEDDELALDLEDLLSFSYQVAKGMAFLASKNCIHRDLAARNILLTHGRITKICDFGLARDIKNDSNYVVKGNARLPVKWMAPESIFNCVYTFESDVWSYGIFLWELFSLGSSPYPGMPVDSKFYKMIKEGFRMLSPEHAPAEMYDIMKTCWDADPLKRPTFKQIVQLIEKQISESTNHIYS

[2] = biological target: T3, full-length human CSF-1R receptor (Homo sapiens, UniProt P07333); assay: In vitro inhibition of CSF-1R receptor tyrosine phosphorylation in transfected HEK293H cells stimulated with MCSF; format: cell-based; conditions: tested at about 1 μM; for inhibition at 1 µM: HEK293-H, read-out: pCSF1R percent inhibition
T3 construct: transfected with the full-length human CSF-1R receptor cloned in house; expressed in transfected cells; host or cells: HEK293H (Invitrogen Cat. #11631017)
T3 sequence (P07333 20-972): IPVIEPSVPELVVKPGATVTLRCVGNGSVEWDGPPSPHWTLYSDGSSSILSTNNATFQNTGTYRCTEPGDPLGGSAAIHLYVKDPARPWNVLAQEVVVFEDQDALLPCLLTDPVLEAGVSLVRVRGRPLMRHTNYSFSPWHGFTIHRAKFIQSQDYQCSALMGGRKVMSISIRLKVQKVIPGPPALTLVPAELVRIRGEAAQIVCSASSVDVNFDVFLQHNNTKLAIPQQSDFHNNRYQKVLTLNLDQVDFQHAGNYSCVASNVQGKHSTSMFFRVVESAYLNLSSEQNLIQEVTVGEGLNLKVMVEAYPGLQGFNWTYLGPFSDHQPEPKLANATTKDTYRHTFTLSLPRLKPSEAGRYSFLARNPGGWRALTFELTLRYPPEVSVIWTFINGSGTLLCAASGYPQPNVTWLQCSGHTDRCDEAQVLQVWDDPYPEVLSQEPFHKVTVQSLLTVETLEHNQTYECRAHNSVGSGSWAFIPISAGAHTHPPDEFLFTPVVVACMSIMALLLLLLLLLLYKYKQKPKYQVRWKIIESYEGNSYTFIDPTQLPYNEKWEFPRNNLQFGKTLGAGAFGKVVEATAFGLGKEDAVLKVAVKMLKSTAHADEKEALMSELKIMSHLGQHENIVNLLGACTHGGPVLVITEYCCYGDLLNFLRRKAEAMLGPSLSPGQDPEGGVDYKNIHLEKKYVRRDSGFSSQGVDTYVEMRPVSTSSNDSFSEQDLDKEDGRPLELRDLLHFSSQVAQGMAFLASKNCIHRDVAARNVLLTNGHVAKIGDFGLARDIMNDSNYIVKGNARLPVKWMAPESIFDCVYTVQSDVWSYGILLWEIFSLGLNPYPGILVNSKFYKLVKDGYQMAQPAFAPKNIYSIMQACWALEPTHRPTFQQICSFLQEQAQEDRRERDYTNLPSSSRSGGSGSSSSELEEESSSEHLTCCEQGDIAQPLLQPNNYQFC
Method: The lysate was then transferred to total CSF-1R antibody coated 96-well plates that had already been blocked with 3% Blocker A from Mesoscale discovery (MSD) for 2 hours and washed afterwards. Lysates were incubated overnight at 4° C. and the plates were then washed 4× with MSD Tris Wash Buffer. […] The plates were read on the Sector 6000 instrument (MSD). Raw data was imported in Abase and EC50s calculated with XL-fit data analysis software.

[3] = system: MNFS60 (murine AML cells); assay: Cell viability assay in MCSF dependent MNFS60 cells (Cell Titer Glo); format: cell-based; conditions: tested at about 1 μM; for inhibition at 1 µM: Mus musculus, read-out: M-NFS-60 CP percent inhibition
Summary of the method: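 Luminescent ATP signal (CellTiter-Glo) after 72 hrs of compound exposure served as the viability measure. Growth was supported by 10 ng/ml MCSF (final), and EC50 values come from fitted triplicate data.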

kinase domain of PDGFRβ = biological target: T4, kinase domain of PDGFRβ (Homo sapiens, UniProt P09619); assay: Inhibition of PDGFRb kinase signaling in an in vitro biochemical assay (alphascreen); conditions: tested at about 1 μM; for inhibition at 1 µM: read-out: PDGFRβ percent inhibition
T4 construct: The kinase domain of PDGFRβ was assayed in 50 mM Hepes; purchased Invitrogen P3082
T4 sequence (P09619 600-962 limits assumed): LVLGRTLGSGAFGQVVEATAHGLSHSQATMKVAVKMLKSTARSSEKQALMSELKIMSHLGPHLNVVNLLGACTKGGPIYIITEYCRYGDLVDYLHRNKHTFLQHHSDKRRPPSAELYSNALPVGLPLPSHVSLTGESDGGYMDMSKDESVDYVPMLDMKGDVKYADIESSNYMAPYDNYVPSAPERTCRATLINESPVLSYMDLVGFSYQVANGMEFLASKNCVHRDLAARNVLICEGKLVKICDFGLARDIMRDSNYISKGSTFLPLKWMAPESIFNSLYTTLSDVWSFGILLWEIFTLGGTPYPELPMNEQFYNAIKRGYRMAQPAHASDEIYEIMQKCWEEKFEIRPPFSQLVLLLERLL

| Molecule | inhibition at 1 µM [1] [%] | inhibition at 1 µM (kinase domain of cKIT) [%] | inhibition at 1 µM ([2]; HEK293H cells) [%] | inhibition at 1 µM (kinase domain of PDGFRβ) [%] | inhibition at 1 µM ([3]; MNFS60 cells) [%] | further results |
| --- | --- | --- | --- | --- | --- | --- |
| CNC(=O)c1cc(Oc2ccc3nc(NCc4c(OC)cccc4OC)sc3c2)ccn1 [Compound 145, 4-[2-(2,6-Dimethoxy-benzyl-amino)-benzothiazol-6-yloxy]-pyridine-2-carboxylic acid methylamide] | 99 | 34 | 98 | 25 | 100 | – |
| CNC(=O)c1cc(Oc2ccc3nc(N[C@H]4CCCC[C@@H]4O)oc3c2)ccn1 [Compound 52, 4-[2-((1S,2S)-2-Hydroxy-cyclohexylamino)-benzooxazol-6-yloxy]-pyridine-2-carboxylic acid methylamide] | 100 | 12 | 71 | 50 | 56 | – |
| CNC(=O)c1cc(Oc2ccc3nc(N[C@H](C)C4CCCCC4)sc3c2)ccn1 [Compound 138, 4-[2-((R)-1-Cyclohexyl-ethylamino)-benzothiazol-6-yloxy]-pyridine-2-carboxylic acid methylamide] | 99 | 93 | 88 | 93 | 100 | – |
| CNC(=O)c1cc(Oc2ccc3nc(N[C@@H]4CCCC[C@H]4N)sc3c2)ccn1 [Example 297, 4-(2-((1R,2R)-2-aminocyclohexylamino)benzo[d]thiazol-6-yloxy)-N-methylpicolinamide] | – | – | – | – | – | inhibition at 1 µM ([1]; compounds of Table 3): 98%; inhibition at 1 µM (kinase domain of cKIT; compounds of Table 3): 0%; inhibition at 1 µM ([2]; compounds of Table 3): 90%; inhibition at 1 µM ([3]; compounds of Table 3): 42%; inhibition at 1 µM (kinase domain of PDGFRβ; compounds of Table 3): 9% |
| CNC(=O)c1cc(Oc2ccc3nc(N[C@H](C)c4ccccc4OC)sc3c2)ccn1 [Compound 129, 4-{2-[(R)-1-(2-Methoxy-phenyl)-ethylamino]-benzothiazol-6-yloxy}-pyridine-2-carboxylic acid methylamide] | 99 | 92 | 92 | 34 | 94 | – |
| CNC(=O)c1cc(Oc2ccc3nc(N[C@H](C)c4ccccc4)sc3c2)ccn1 [Compound 131, 4-[2-((R)-1-Phenyl-ethylamino)-benzothiazol-6-yloxy]-pyridine-2-carboxylic acid methylamide] | 99 | 96 | 98 | 55 | 100 | – |
| 4-[2-(2-Chloro- benzylamino)-benzooxazol- 6-yloxy]-pyridin-2- carboxylic acid methylamide [Compound 8] | – | – | – | – | – | CSF-1R percent inhibition ([1]; compounds of Table 4): 100%; cKit percent inhibition (kinase domain of cKIT; compounds of Table 4): 25%; pCSF1R percent inhibition ([2]; compounds of Table 4): 98%; M-NFS-60 CP percent inhibition ([3]; compounds of Table 4): 100%; PDGFRβ percent inhibition (kinase domain of PDGFRβ; compounds of Table 4): 35% |
| CNC(=O)c1cc(Oc2ccc3nc(NCc4ccccc4Cl)sc3c2)ccn1 [Compound 127, 4-[2-(2-Chloro-benzylamino)-benzothiazol-6-yloxy]-pyridine-2-carboxylic acid methylamide] | 100 | 81 | 95 | 20 | 95 | – |
| CNC(=O)c1cc(Oc2ccc3nc(NCc4ccccc4OC)sc3c2)ccn1 [Compound 132, 4-[2-(2-Methoxy-benzylamino)-benzothiazol-6-yloxy]-pyridine-2-carboxylic acid methylamide] | 99 | 98 | 98 | 58 | 100 | – |
| c1ccc2c(Oc3ccc4nc(NC5CCCCC5)sc4c3)ccnc2c1 [Example 256, N-cyclohexyl-6-(quinolin-4-yloxy)benzo[d]thiazol-2-amine] | – | – | – | – | – | inhibition at 1 µM ([1]; compounds of Table 3): 100%; inhibition at 1 µM (kinase domain of cKIT; compounds of Table 3): 71%; inhibition at 1 µM ([2]; compounds of Table 3): 87%; inhibition at 1 µM ([3]; compounds of Table 3): 87%; inhibition at 1 µM (kinase domain of PDGFRβ; compounds of Table 3): 3% |
| CNC(=O)c1cc(Oc2ccc3nc(NCc4ccccc4N4CCCCC4)oc3c2)ccn1 [Compound 118, 4-[2-(2-Piperidin-1-yl-benzylamino)-benzooxazol-6-yloxy]-pyridine-2-carboxylic acid methylamide] | 100 | 95 | 69 | 49 | 83 | – |
| CN1CCN(c2ccc(-c3cc(Oc4ccc5nc(N[C@@H]6CCCC[C@H]6O)sc5c4)ccn3)cn2)CC1 [Cmpd 164, (1R,2R)-2-(6-(6'-(4-methylpiperazin-1-yl)-2,3'-bipyridin-4-yloxy)benzo[d]thiazol-2-ylamino)cyclohexanol] | – | – | – | – | – | inhibition at 1 µM ([1]; compounds of Table 3): 100%; inhibition at 1 µM (kinase domain of cKIT; compounds of Table 3): 79%; inhibition at 1 µM ([2]; compounds of Table 3): 100%; inhibition at 1 µM ([3]; compounds of Table 3): 100%; inhibition at 1 µM (kinase domain of PDGFRβ; compounds of Table 3): 87% |
| O[C@@H]1CCCC[C@H]1Nc1nc2ccc(Oc3ccnc4cc(F)ccc34)cc2s1 [Example 229, (1R,2R)-2-(6-(7-fluoroquinolin-4-yloxy)benzo[d]thiazol-2-ylamino)cyclohexanol] | – | – | – | – | – | inhibition at 1 µM ([1]; compounds of Table 3): 100%; inhibition at 1 µM (kinase domain of cKIT; compounds of Table 3): 21%; inhibition at 1 µM ([2]; compounds of Table 3): 92%; inhibition at 1 µM ([3]; compounds of Table 3): 80%; inhibition at 1 µM (kinase domain of PDGFRβ; compounds of Table 3): 30% |

Second part, led by results:

| inhibition at 1 µM [1] [%] | inhibition at 1 µM (kinase domain of cKIT) [%] | inhibition at 1 µM ([2]; HEK293H cells) [%] | inhibition at 1 µM (kinase domain of PDGFRβ) [%] | Molecule | inhibition at 1 µM ([3]; MNFS60 cells) [%] | further results |
| --- | --- | --- | --- | --- | --- | --- |
| 100 | 70 | 95 | 12 | CNC(=O)c1cc(Oc2ccc3nc(NCCc4ccccc4OC)sc3c2)ccn1 [Example 317, 4-(2-(2-methoxyphenylethylamino)benzo[d]thiazol-6-yloxy)-N-methylpicolinamide] | – | inhibition at 1 µM ([3]; MCSF dependent MNFS60 cells): 50% |
| 100 | 45 | 97 | 74 | CC(C)[C@@H](CO)Nc1nc2ccc(Oc3ccnc(-c4cnn(C)c4)c3)cc2s1 [Example 352, (S)-3-methyl-2-(6-(2-(1-methyl-1H-pyrazol-4-yl)pyridin-4-yloxy)benzo[d]thiazol-2-ylamino)butan-1-ol] | – | inhibition at 1 µM ([3]; MCSF dependent MNFS60 cells): 100% |
| 99 | 100 | 98 | 82 | CNC(=O)c1cc(Oc2ccc3nc(NCc4cccc5c4OCCO5)sc3c2)ccn1 [Compound 152, 4-{2-[(2,3-Dihydro-benzo-[1,4]dioxin-5-ylmethyl)-amino]-benzothiazol-6-yloxy}-pyridine-2-carboxylic acid methylamide] | 100 | – |
| 100 | 27 | 99 | 27 | CC(C)C[C@H](CO)Nc1nc2ccc(Oc3ccnc(-c4cnn(C)c4)c3)cc2s1 [Example 355, (R)-4-methyl-2-(6-(2-(1-methyl-1H-pyrazol-4-yl)pyridin-4-yloxy)benzo[d]thiazol-2-ylamino)pentan-1-ol] | – | inhibition at 1 µM ([3]; MCSF dependent MNFS60 cells): 100% |
| 99 | 4 | 92 | 0 | CNC(=O)c1cc(Oc2ccc3nc(NCc4c(F)cccc4F)sc3c2)ccn1 [Compound 149, 4-[2-(2,6-Difluoro-benzylamino)-benzothiazol-6-yloxy]-pyridine-2-carboxylic acid methylamide] | 67 | – |
